This note sets out measurements from patent publication US10806726B2, “Methods of using indazole-3-carb oxamides and their use as Wnt/B-catenin signaling pathway inhibitors” (Samumed, LLC, priority 2016, dated 2020).

Assay [1] relates to Wnt-responsive promoter driving firefly luciferase in SW480 cells. Description: Wnt reporter (SP5 promoter-luciferase) screening assay in SW480 cells. It counts as cell-based. Conditions: Homo sapiens, 24-40 h, top concentration ten micromolar. The method in brief: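 SW480 (APC-mutant colon) cells stably transduced with lentiviral SP5-promoter (eight TCF/LEF sites) firefly luciferase, ~10,000 cells/well. Signals normalized to DMSO controls for EC50 fitting.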

In assay [2] the test system is primary human mesenchymal stem cells (hMSCs). Description: Tenocyte differentiation screening in hMSCs (SCXA-positive cells, 4 days). The class given is cell-based. Conditions: 96 h, fold change over DMSO. The method in brief: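 Primary hMSCs at passage 3–6 were treated with compound, fixed and immunostained for SCXA, and SCXA-positive cells per well were counted by imaging. Counts were normalized to DMSO wells as fold change, averaged over triplicates, and EC50 was fitted, with high-dose values manually corrected for solubility.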

As to `Cc1cc(NC(=O)c2n[nH]c3ccc(-c4cncc(CN5CCCCC5)c4)cc23)cnc1N1CCCC1` [compound 172, N-(5-Methyl-6-(pyrrolidin-1-yl)pyridin-3-yl)-5-(5-(piperidin-1-ylmethyl)pyridin-3-yl)-1H-indazole-3-carboxamide], the values for the EC50 in assay [1] and in assay [2] were 60 nM and more than 100000 nM, respectively.
The matching figures for `Cc1cc(NC(=O)c2n[nH]c3ccc(-c4cncc(CN5CCCCC5)c4)cc23)cnc1N1CCC1` [compound 173, N-(6-(Azetidin-1-yl)-5-methylpyridin-3-yl)-5-(5-(piperidin-1-ylmethyl)pyridin-3-yl)-1H-indazole-3-carboxamide]: 36 nM and more than 100000 nM.
Regarding `O=C(Nc1ccc(N2CCC2)nc1)c1n[nH]c2ccc(-c3cncc(CN4CCCCC4)c3)cc12` [compound 174, N-(6-(Azetidin-1-yl)pyridin-3-yl)-5-(5-(piperidin-1-ylmethyl)pyridin-3-yl)-1H-indazole-3-carboxamide], the EC50 (usually the concentration that produces a half-maximal response) in assay [1] amounted to 48 nM; in assay [2] it was 5540 nM.
For `Nc1ncc(NC(=O)c2n[nH]c3ccc(-c4cncc(CN5CCCCC5)c4)cc23)cn1` [compound 176, N-(2-Aminopyrimidin-5-yl)-5-(5-(piperidin-1-ylmethyl)pyridin-3-yl)-1H-indazole-3-carboxamide], the figures for the EC50 in assay [1] and in assay [2] were 30 nM and 4650 nM, respectively.
The like results for `O=C(Nc1ccc(N2CCNCC2)nc1)c1n[nH]c2ccc(-c3cncc(CN4CCCCC4)c3)cc12` [compound 177, N-(6-(Piperazin-1-yl)pyridin-3-yl)-5-(5-(piperidin-1-ylmethyl)pyridin-3-yl)-1H-indazole-3-carboxamide] were, in that order, 183 nM and 5170 nM.
The like results for `O=C(Nc1ccc(O)nc1)c1n[nH]c2ccc(-c3cncc(CN4CCCCC4)c3)cc12` [compound 178, N-(6-Hydroxypyridin-3-yl)-5-(5-(piperidin-1-ylmethyl)pyridin-3-yl)-1H-indazole-3-carboxamide] were, in that order, 297 nM and more than 100000 nM.
The like results for `O=C(Nc1ccc(C(=O)N2CCCC2)nc1)c1n[nH]c2ccc(-c3cncc(CN4CCCCC4)c3)cc12` [compound 179, 5-(5-(Piperidin-1-ylmethyl)pyridin-3-yl)-N-(6-(pyrrolidine-1-carbonyl)pyridin-3-yl)-1H-indazole-3-carboxamide] were, in that order, 30 nM and 1120 nM.
As to `NC(=O)c1ccc(NC(=O)c2n[nH]c3ccc(-c4cncc(CN5CCCCC5)c4)cc23)cn1` [compound 180, N-(6-carbamoylpyridin-3-yl)-5-(5-(piperidin-1-ylmethyl)pyridin-3-yl)-1H-indazole-3-carboxamide], the EC50 in assay [1] was 13 nM; in assay [2], more than 100000 nM.
The matching figures for `O=C(NC1CCCC1)c1ccc(NC(=O)c2n[nH]c3ccc(-c4cccnc4)cc23)cn1` [compound 181, N-(6-(Cyclopentylcarbamoyl)pyridin-3-yl)-5-(pyridin-3-yl)-1H-indazole-3-carboxamide]: 38 nM and more than 100000 nM.
As for `Nc1cncc(-c2ccc3[nH]nc(C(=O)Nc4ccc(N5CCCCC5)nc4)c3c2)c1` [compound 182, 5-(5-Aminopyridin-3-yl)-N-(6-(piperidin-1-yl)pyridin-3-yl)-1H-indazole-3-carboxamide], the values for the EC50 in assay [1] and in assay [2] were 35 nM and 8040 nM, respectively.
The matching figures for `O=C(Nc1ccc(N2CCCC2)nc1)c1n[nH]c2ccc(-c3cncc(CN4CCC(F)(F)C4)c3)cc12` [compound 183, 5-(5-((3,3-Difluoropyrrolidin-1-yl)methyl)pyridin-3-yl)-N-(6-(pyrrolidin-1-yl)pyridin-3-yl)-1H-indazole-3-carboxamide]: 49 nM and more than 100000 nM.
The like results for `O=C(NC1CCCC1)c1ccc(NC(=O)c2n[nH]c3ccc(-c4cncc(CN5CCCCC5)c4)cc23)cn1` [compound 184, N-(6-(Cyclopentylcarbamoyl)pyridin-3-yl)-5-(5-(piperidin-1-ylmethyl)pyridin-3-yl)-1H-indazole-3-carboxamide] were, in that order, 40 nM and more than 100000 nM.
Take `CS(=O)(=O)c1ccc(NC(=O)c2n[nH]c3ccc(-c4cncc(CN5CCCCC5)c4)cc23)cn1` [compound 185, N-(6-(Methylsulfonyl)pyridin-3-yl)-5-(5-(piperidin-1-ylmethyl)pyridin-3-yl)-1H-indazole-3-carboxamide]: the EC50 was 27 nM in assay [1] and 6440 nM in assay [2].
The matching figures for `CN1CCN(c2cncc(-c3ccc4[nH]nc(C(=O)Nc5ccc(N6CCCC6)nc5)c4c3)c2)CC1` [compound 186, 5-(5-(4-Methylpiperazin-1-yl)pyridin-3-yl)-N-(6-(pyrrolidin-1-yl)pyridin-3-yl)-1H-indazole-3-carboxamide]: 460 nM and more than 100000 nM.
The like results for `O=C(Nc1ccc(N2CCCC2)nc1)c1n[nH]c2ccc(-c3cncc(N4CCOCC4)c3)cc12` [compound 187, 5-(5-Morpholinopyridin-3-yl)-N-(6-(pyrrolidin-1-yl)pyridin-3-yl)-1H-indazole-3-carboxamide] were, in that order, 215 nM and more than 100000 nM.
Take `O=C(Nc1cccnc1)c1n[nH]c2ccc(-c3cncc(CN4CCC(F)(F)C4)c3)cc12` [compound 188, 5-(5-((3,3-Difluoropyrrolidin-1-yl)methyl)pyridin-3-yl)-N-(pyridin-3-yl)-1H-indazole-3-carboxamide]: the EC50 is 9 nM in assay [1] and 1210 nM in assay [2].
The like results for `O=C(Nc1cccnc1)c1n[nH]c2ccc(-c3cncc(N4CCCC4)c3)cc12` [compound 189, N-(Pyridin-3-yl)-5-(5-(pyrrolidin-1-yl)pyridin-3-yl)-1H-indazole-3-carboxamide] were, in that order, 85 nM and more than 100000 nM.
Turning to `CN(C)Cc1cncc(-c2ccc3[nH]nc(C(=O)Nc4ccc(N5CCCC5)nc4)c3c2)c1` [compound 190, 5-(5-((Dimethylamino)methyl)pyridin-3-yl)-N-(6-(pyrrolidin-1-yl)pyridin-3-yl)-1H-indazole-3-carboxamide], the results for the EC50 in assay [1] and in assay [2] were 1200 nM and more than 100000 nM, respectively.
